Assay results published in patent US10975079B2, “4-amino-3-phenylamino-6-phenylpyrazolo[3,4-d]pyrimidine derivatives for use as BCRP inhibitors in therapeutic treatments” (SCANDION ONCOLOGY A/S, priority 2015, dated 2021).

How the values were obtained:
[1] = biological target: T1, BCRP (Homo sapiens, UniProt Q9UNQ0); assay: BCRP fluorimetric inhibition assay, Hoechst 33342 substrate, recombinant CHO-K1 cells; assay type: cell-based; conditions: Hoechst 33342 (5 μm) substrate, 20 min at 37° C., fluorimetry
T1 construct: expressed in transfected cells; host or cells: CHO-K1
T1 sequence (Q9UNQ0 1-655): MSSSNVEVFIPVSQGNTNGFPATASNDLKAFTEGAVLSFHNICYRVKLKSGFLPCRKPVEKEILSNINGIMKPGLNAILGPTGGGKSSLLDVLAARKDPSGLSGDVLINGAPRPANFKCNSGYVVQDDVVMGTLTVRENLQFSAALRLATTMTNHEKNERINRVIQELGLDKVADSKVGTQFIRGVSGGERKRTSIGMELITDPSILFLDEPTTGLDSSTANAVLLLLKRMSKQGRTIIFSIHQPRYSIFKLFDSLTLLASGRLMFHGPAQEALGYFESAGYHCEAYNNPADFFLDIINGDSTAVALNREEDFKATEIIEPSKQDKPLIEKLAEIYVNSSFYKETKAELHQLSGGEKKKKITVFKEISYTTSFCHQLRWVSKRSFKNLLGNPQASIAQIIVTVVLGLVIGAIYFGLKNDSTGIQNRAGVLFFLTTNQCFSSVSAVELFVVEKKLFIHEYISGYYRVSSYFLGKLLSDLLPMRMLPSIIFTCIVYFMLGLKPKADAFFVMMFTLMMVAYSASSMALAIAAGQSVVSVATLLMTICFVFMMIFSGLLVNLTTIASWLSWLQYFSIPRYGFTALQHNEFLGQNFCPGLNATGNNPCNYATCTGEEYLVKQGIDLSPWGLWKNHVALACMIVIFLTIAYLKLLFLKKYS
Protocol: The IC-50 value of OBR 5-340 and MS 112 were determined according to the method described by Paturi D. K, et al in Int. J. Pharm. (2010), 384: 32-38. The source used for the determination was human recombinant CHO-K1 cells, while Hoechst 33342 (5 μm) was used as the substrate. The cells were incubated for 20 min at 37° C. and the detection was accomplished by fluorimetry.
Fluorimetric Inhibition Assay:
The percent of control is calculated using the following equation.
In this formula, “Compound” is the individual reading in the presence of the test compound. “T1” is the mean reading in the absence of the test compound. Background is the mean reading in the presence of the highest effective concentration of the reference inhibitor.
The percent of inhibition is calculated by subtracting the percent of control from 100. The IC50 value (concentration causing a half-maximal inhibition of the control value) is determined by non-linear regression analysis of the concentration-response curve using the Hill equation.

[2] = test system: CYP1A; assay: Cytochrome P450 inhibition (DMPK studies); assay type: in vitro ADME
[3] = biological target: T2, CYP2B6 (Homo sapiens, UniProt P20813); assay: Cytochrome P450 inhibition (DMPK studies); assay type: in vitro ADME
T2 sequence (P20813 1-491): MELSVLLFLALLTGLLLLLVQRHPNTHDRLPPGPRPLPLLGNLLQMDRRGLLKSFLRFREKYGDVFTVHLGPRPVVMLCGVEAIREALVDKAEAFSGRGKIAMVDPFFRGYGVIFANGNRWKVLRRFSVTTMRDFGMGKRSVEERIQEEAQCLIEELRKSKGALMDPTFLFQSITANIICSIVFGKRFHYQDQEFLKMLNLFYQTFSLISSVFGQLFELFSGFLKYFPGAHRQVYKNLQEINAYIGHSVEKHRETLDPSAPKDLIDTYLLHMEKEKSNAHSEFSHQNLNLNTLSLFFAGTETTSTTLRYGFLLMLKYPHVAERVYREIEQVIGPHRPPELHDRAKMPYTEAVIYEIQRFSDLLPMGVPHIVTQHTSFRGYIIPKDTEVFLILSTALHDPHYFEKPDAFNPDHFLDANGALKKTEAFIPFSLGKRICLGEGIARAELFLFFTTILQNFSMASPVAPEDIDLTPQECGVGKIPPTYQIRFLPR

[4] = biological target: T3, CYP2C8 (Homo sapiens, UniProt P10632); assay: Cytochrome P450 inhibition (DMPK studies); assay type: in vitro ADME
T3 sequence (P10632 1-490): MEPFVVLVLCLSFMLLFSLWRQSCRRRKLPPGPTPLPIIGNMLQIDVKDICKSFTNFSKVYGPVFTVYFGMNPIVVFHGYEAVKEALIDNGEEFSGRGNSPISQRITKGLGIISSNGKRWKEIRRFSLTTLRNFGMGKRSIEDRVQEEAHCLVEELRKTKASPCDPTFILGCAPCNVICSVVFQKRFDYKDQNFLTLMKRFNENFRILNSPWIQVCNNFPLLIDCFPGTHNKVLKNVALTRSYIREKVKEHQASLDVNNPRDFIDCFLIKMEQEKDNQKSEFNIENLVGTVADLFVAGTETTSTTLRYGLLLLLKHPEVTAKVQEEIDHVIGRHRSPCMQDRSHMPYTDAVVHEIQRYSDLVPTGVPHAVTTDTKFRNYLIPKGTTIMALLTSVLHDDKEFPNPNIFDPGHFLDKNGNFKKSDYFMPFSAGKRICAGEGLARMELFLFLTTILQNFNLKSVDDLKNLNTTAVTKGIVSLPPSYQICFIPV
Source text: (§1) Also no induction of CYP1A2, CYP2B6, and CYP3A4 could be found.

[5] = test system: CYP3A; assay: Cytochrome P450 inhibition (DMPK studies); assay type: in vitro ADME
Source text: as §1

[6] = biological target: CYP2D6 (Homo sapiens, UniProt P10635); assay: Cytochrome P450 inhibition (DMPK studies); assay type: in vitro ADME
Source text: as §1

[7] = biological target: CYP2C9 (Homo sapiens, UniProt P11712); assay: Cytochrome P450 inhibition (DMPK studies); assay type: in vitro ADME
Source text: as §1

[8] = biological target: CYP2C19 (Homo sapiens, UniProt P33261); assay: Cytochrome P450 inhibition (DMPK studies); assay type: in vitro ADME
Source text: as §1

[9] = test system: CYP3A4; assay: Cytochrome P450 induction (DMPK studies); assay type: in vitro ADME
Source text: as §1

[10] = test system: CYP1A2; assay: Cytochrome P450 induction (DMPK studies); assay type: in vitro ADME
Source text: as §1

[11] = test system: CYP2B6; assay: Cytochrome P450 induction (DMPK studies); assay type: in vitro ADME
Source text: as §1

Sequence of CYP2D6 (P10635 whole entry): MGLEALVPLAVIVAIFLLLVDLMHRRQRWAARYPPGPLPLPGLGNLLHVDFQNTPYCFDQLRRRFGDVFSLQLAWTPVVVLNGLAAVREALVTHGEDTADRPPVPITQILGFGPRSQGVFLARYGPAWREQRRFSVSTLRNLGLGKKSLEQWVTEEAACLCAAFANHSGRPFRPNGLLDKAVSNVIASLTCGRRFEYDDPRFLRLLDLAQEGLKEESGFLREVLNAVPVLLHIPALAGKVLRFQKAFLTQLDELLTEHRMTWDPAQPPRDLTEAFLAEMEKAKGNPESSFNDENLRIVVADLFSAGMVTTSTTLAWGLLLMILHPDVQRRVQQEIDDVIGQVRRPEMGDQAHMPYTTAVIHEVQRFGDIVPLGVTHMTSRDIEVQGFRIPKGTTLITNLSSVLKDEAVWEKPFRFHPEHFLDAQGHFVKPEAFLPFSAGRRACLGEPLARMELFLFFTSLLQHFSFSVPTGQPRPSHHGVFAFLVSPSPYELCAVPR
Sequence of CYP2C19 (P33261 whole entry): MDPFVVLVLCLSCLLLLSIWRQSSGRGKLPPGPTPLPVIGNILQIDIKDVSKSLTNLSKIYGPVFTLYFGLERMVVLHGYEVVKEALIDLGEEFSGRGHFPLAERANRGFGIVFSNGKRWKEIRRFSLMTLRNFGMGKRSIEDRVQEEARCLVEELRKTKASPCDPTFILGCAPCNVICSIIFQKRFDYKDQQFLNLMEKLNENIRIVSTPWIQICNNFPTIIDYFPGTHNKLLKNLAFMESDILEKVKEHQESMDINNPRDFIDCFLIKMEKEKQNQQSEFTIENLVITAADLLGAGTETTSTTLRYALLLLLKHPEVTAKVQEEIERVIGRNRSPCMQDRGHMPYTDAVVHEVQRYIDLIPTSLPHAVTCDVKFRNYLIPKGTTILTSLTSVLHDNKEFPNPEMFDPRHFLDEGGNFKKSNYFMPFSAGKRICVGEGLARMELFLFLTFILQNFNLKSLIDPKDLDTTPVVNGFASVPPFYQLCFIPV
Sequence of CYP2C9 (P11712 whole entry): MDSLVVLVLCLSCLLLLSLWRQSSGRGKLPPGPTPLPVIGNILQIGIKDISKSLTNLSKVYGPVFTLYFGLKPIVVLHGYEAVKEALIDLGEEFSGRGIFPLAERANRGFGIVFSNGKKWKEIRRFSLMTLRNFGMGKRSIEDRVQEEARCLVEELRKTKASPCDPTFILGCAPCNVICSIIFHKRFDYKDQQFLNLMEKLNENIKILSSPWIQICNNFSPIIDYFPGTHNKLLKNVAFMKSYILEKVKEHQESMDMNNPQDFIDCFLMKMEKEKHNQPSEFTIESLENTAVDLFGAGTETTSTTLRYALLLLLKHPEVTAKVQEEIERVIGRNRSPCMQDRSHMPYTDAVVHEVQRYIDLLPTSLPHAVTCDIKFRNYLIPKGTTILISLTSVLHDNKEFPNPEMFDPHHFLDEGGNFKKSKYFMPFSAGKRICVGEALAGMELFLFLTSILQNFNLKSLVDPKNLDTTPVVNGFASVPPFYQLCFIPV

Row | IC50 [1] [µM] | inhibition of CYP1A [2] | inhibition of CYP2B6 [3] | inhibition of CYP2C8 [4] | inhibition of CYP3A [5] | inhibition of CYP2D6 [6] | inhibition of CYP2C9 [7] | inhibition of CYP2C19 [8] | induction of CYP3A4 [9] | induction of CYP1A2 [10] | induction of CYP2B6 [11] | SMILES
1 | ~100 | – | – | – | – | – | – | – | – | – | – | Nc1nc(-c2ccc(OC(F)(F)F)cc2)nc2[nH]nc(Nc3ccccc3)c12 [MS-112, 4-amino-3-phenylamino-6-[4-(trifluormethoxy)-phenyl]pyrazolo[3,4-d]pyrimidine]
2 | 1.7 | does not inhibit | does not inhibit | does not inhibit | does not inhibit | does not inhibit | does not inhibit | does not inhibit | no induction | no induction | no induction | Nc1nc(-c2ccccc2)nc2[nH]nc(Nc3ccc(C(F)(F)F)cc3)c12 [OBR-5-340, 4-amino-3-(4-trifluormethyl-phenyl)amino-6-phenylpyrazolo[3,4-d]pyrimidine]
